Test results published in PMC9046208, “Foldamers reveal and validate therapeutic targets associated with toxic α-synuclein self-assembly” (Nature Communications, 2022).

Experiments:
Assay type in all cases: biochemical
[1] = molecular target: Aβ42 aggregation (Homo sapiens, UniProt P05067); experiment: ThT aggregation assay, Aβ42; conditions: equimolar ratio
Protocol: The aggregation kinetics of αS was monitored using ThT fluorescence assay (λex = 450 nm and λem = 485 nm). To study the aggregation kinetics of αS, the ThT dye at a final concentration of 50 μM was added to 100 μM αS solution in the aggregation buffer (1 x PBS buffer) with and without various concentrations of SK-129 in a Costar black 96–well plate (Corning Inc., Kennebunk, ME). The small molecules were dissolved in dimethyl sulfoxide (DMSO; final DMSO concentration = 0.5%, v/v). The final volume in each well was 140 μL. The plate was incubated at 37 °C with 16 min shaking (434 rpm) and 44 min without shaking in an Infinite M200PRO plate reader (Tecan, Männedorf, Switzerland) and fluorescence was recorded after every hour. We used two methods to quantify the effect of molecules on the aggregation of αS; either we have reported the t50 (time required to reach 50% fluorescence of ThT), which was extracted by fitting the ThT curve as a sigmoidal fit or the absolute ThT fluorescence intensity was reported. […] In the second method, we determined the final ThT fluorescence intensity for the aggregation of αS/Aβ42(with or without ligands) as an average of three separate experiments. […]
The data were expressed as mean and the error bars report the s.e.m. […]

[2] = molecular target: T1, αS seed-catalyzed aggregation (Homo sapiens, UniProt P37840); experiment: Seed-catalyzed ThT aggregation assay (10% WT αS seeds), WT αS; conditions: equimolar ratio
T1 construct: made in house; host or cells: Escherichia coli BL21(DE3), periplasm
Protocol: Seed-catalyzed αS aggregation assay was performed similarly to a previously described protocol. Briefly, 100 μM monomeric WT αS solution (200 μL, in 1x PBS buffer) was placed into a ThermoMixer (Eppendorf, Hamberg, Germany) and shook for five days at a rate of […] and 37 °C. The solution was sonicated for 10 min and used as αS seeds. The seed-catalyzed aggregation of WT αS/ αS variants was performed by adding αS seeds (10% seeds, αS in monomeric concentration, v/v) into 140 μL of fresh 100 μM WT αS/ αS variants solution and aggregation was started with constant shaking at a rate of […] and 37 °C. The aggregation of proteins was monitored at the indicated times (See the main manuscript) using the above-mentioned method.
The ThT aggregation assay for each protein (WT αS and αS variants) in the presence of SK-129 was carried out the above-mentioned method. SK-129 (from 10 mM stock solution in DMSO) was added at an equimolar ratio (1% DMSO, v/v) to the proteins at the start of the aggregation experiment. The concentration of DMSO was kept constant (1%, v/v) in protein (WT αS and αS variants), control, and protein+molecule solutions. The kinetic profiles of protein aggregation were processed using OriginPro software (Version 9.1). Kinetic curves were fit using a built-in sigmoidal fit in the OriginLab.

[3] = molecular target: T2, αS oligomers (Homo sapiens, UniProt P37840); experiment: Gel shift assay of αS supernatant (oligomers); conditions: 70 µM αS, 0.1, 0.2, 0.5 mol eq. ligand, 7 days
T2 construct: made in house; host or cells: Escherichia coli BL21(DE3), periplasm
Protocol: Supplementary Fig. 8. Gel-shift images of αS (70 µM) incubated in the absence (lane 2) and presence of SK-129 (a) and EGCG (b) at sub-stoichiometric ratios (0.1, 0.2, 0.5 mol eq.) for 7 days at 370C with constant shaking. The solutions of αS in the absence and presence of ligands were centrifuged and the supernatant was used for the gel shift assay. The arrows indicate the formation of various αS structures. The gel shift assay of the supernatant of the αS aggregated […]
fibers. Most of the αS was found in the supernatant as a mo nomer and a dimer in the presence of […]
their formation. The gel experiments were conducted at least two times to confirm the reproducibility of the data.
(1 picture or pasted object on this page, not shown here)

Chain of Aβ42 aggregation (P05067 672-713 limits assumed): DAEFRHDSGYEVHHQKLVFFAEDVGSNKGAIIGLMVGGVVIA

effect on Aβ aggregation [1]: did not show any noticeable effect | effect on seed-catalyzed aggregation [2]: wholly suppressed | αS species in gel shift assay [3]: potently inhibits αS aggregation
SMILES: COC(=O)c1cc(OCC(=O)O)c2cccc(NC(=O)c3cc(OC(C)C)c4cccc(NC(=O)c5cc(OCC(=O)O)c6cccc(NC(=O)c7cc(OC(C)C)c8cccc([N+](=O)[O-])c8n7)c6n5)c4n3)c2n1 [SK-129]
